Tests used:
Human Calpain 9/NS1 = target: T1, Human Calpain 9/NS1 (Homo sapiens, UniProt O14815); experiment: Biochemical inhibition of calpain 9, continuous fluorescence (FRET substrate) assay; details: mean, read-out: Human Calpain 9/NS1 IC50 (nM)_MEAN
T1 sequence (O14815 1-690): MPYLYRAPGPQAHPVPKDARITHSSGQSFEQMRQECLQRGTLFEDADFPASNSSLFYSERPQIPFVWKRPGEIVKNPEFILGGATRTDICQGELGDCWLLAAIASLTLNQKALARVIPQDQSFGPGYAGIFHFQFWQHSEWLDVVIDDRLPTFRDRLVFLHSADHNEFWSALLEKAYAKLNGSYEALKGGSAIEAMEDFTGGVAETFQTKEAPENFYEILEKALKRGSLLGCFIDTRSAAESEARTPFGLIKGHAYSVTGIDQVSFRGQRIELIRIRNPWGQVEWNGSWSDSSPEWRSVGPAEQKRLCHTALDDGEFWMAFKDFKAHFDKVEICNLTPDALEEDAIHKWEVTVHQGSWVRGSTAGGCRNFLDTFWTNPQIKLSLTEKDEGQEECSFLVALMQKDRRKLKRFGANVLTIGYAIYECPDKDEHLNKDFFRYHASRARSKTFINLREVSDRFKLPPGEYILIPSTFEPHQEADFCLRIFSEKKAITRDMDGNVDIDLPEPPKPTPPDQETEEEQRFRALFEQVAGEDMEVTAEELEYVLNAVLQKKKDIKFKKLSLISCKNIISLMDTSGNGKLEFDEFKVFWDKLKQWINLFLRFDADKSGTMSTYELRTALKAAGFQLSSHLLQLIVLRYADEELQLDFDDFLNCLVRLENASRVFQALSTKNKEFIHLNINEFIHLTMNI
T1 sequence (P04632 1-268 partner): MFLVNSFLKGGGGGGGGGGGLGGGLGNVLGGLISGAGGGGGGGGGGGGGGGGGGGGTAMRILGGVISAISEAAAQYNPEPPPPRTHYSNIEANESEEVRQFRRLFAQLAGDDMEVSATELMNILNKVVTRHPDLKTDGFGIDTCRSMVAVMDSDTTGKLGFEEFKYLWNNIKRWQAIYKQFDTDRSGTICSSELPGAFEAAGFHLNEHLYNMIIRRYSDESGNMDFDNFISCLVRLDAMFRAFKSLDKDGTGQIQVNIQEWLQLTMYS
Method in brief: (§1)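 Continuous FRET assay with 5-FAM/QXL520 peptide substrate in 50 mM Tris pH ~7.5, 100 mM NaCl, 1 mM DTT. Enzyme preincubated with inhibitor at 25C; reaction started with substrate plus CaCl2, read at 490/520 nm for 10 min. Rates from slopes over 1-5 min, IC50 from 4-parameter logistic fit.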

Human Calpain 1/NS1 = target: T2, Human Calpain 1/NS1 (Homo sapiens, UniProt P07384); experiment: Biochemical inhibition of calpain 1, continuous fluorescence (FRET substrate) assay; details: mean, read-out: Human Calpain 1/NS1 IC50 (nM)_MEAN
T2 sequence (P07384 1-714): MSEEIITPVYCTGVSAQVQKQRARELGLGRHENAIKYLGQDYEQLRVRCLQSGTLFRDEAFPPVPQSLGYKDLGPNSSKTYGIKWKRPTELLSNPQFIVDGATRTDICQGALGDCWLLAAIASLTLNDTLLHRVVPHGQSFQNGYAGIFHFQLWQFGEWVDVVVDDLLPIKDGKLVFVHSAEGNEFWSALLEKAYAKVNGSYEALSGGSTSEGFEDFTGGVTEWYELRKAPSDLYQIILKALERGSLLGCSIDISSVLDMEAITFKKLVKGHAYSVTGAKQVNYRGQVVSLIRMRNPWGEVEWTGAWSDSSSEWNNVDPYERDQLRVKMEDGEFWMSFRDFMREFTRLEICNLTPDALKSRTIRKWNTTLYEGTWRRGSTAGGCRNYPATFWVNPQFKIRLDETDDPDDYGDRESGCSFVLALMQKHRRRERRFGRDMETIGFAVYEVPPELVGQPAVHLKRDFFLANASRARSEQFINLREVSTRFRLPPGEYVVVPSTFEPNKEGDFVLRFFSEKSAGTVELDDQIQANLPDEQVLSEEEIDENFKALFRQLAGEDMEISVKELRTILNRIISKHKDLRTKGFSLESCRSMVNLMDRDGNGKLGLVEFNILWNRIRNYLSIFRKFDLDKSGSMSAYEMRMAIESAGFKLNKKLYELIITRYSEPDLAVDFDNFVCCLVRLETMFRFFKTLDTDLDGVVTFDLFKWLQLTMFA
T2 sequence (P04632 1-268 partner): T1 sequence (P04632 1-268 partner)
Method in brief: as §1

Human Calpain 2/NS1 = target: T3, Human Calpain 2/NS1 (Homo sapiens, UniProt P17655); experiment: Biochemical inhibition of calpain 2, continuous fluorescence (FRET substrate) assay; details: mean, read-out: Human Calpain 2/NS1 IC50 (nM)_MEAN
T3 sequence (P17655 1-700): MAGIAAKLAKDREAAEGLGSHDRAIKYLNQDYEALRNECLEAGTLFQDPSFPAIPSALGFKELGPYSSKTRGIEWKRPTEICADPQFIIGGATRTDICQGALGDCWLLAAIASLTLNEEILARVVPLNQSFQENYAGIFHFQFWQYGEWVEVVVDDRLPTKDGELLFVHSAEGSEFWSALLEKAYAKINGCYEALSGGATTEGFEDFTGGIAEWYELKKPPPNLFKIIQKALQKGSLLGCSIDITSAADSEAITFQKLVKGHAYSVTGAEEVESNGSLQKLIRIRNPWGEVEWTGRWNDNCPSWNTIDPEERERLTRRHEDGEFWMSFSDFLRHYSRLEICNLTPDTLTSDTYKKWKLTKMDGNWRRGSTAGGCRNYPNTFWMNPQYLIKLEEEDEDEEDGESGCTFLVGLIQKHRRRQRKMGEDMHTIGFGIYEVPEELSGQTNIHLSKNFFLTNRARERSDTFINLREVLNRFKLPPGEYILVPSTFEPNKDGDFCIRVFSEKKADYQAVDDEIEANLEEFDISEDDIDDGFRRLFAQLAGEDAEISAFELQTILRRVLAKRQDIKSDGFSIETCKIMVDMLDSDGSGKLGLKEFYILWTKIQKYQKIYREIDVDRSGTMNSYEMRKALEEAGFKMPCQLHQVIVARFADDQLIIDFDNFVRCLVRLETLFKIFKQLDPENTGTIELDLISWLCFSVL
T3 sequence (P04632 1-268 partner): T1 sequence (P04632 1-268 partner)
Method in brief: as §1

Structure (SMILES) | IC50 (Human Calpain 9/NS1) | IC50 (Human Calpain 1/NS1) | IC50 (Human Calpain 2/NS1)
CN1CCN(CCCNC(=O)C(=O)C2CCCCOCCOCc3ccccc3C(=O)N2)CC1 (stereo not drawn) [Compound 105, N-(3-(4-methylpiperazin-1-yl)propyl)-2-oxo-2-(12-oxo-1,3,4,6,7,8,9,10,11,12-decahydrobenzo[f][1,4]dioxa[9]azacyclotetradecin-10-yl)acetamide] | < 3000 nM | > 10000 nM | > 10000 nM
O=C[C@@H]1C/C=C/CCCCCc2cccnc2C(=O)N1 [Compound 48, (S,E)-15-Oxo-6,7,8,9,12,13,14,15-octahydro-5h-pyrido[2,3-c][1]aza-cyclotridecine-13-carbaldehyde] | < 3000 nM | > 10000 nM | 3000 to 10000 nM
CCCCNC(=O)C(=O)[C@@H]1CCCCOCCOCc2ccccc2C(=O)N1 [Compound 53, (S)—N-butyl-2-oxo-2-(12-oxo-1,3,4,6,7,8,9,10,11,12-decahydrobenzo[f][1,4]dioxa[9]azacyclotetradecin-10-yl)acetamide] | < 3000 nM | > 10000 nM | > 10000 nM
O=C[C@@H]1Cc2ccccc2CCCOCc2ccccc2C(=O)N1 [Compound 31, (S)-17-Oxo-5,7,8,9,14,15,16,17-octahydrodibenzo[c,i][1]oxa[6]aza-cyclotridecine-15-carbaldehyde] | < 3000 nM | < 3000 nM | < 3000 nM
O=C(NC1CC1)C(=O)[C@@H]1Cc2ccc(cc2)OCCCCOc2cccc(c2)-c2ccn(n2)-c2ncccc2C(=O)N1 [Compound 72, N-cyclopropyl-2-oxo-2-((6S,E)-4-oxo-2^1H-9,14-dioxa-5-aza-3(2,3)-pyridina-2(3,1)-pyrazola-1(1,3),8(1,4)-dibenzenacyclotetradecaphane-6-yl)acetamide] | < 3000 nM | < 3000 nM | < 3000 nM
CCNC(=O)C(=O)[C@@H]1Cc2ccc(cc2)OCCCCOc2cccc(c2)-c2ccn(n2)-c2ncccc2C(=O)N1 [Compound 45, N-ethyl-2-oxo-2-((6S,E)-4-oxo-2^1H-9,14-dioxa-5-aza-3(2,3)-pyridina-2(3,1)-pyrazola-1(1,3),8(1,4)-dibenzenacyclotetradecaphane-6-yl)acetamide] | < 3000 nM | < 3000 nM | < 3000 nM
CCOC(=O)CCNC(=O)C(=O)[C@@H]1C/C=C\COCCOCc2ccccc2C(=O)N1 [Compound 60, Ethyl (S,Z)-3-(2-oxo-2-(12-oxo-1,3,4,6,9,10,11,12-octahydrobenzo[f][1,4]dioxa[9]azacyclotetradecin-10-yl)acetamido)propanoate] | > 10000 nM | > 10000 nM | > 10000 nM
O=C[C@@H]1C/C=C\COCCOCc2ccccc2C(=O)N1 [Compound 1, (S,Z)-12-Oxo-1,3,4,6,9,10,11,12-octahydrobenzo[f][1,4]dioxa[9]azacyclo-tetradecine-10-carbaldehyde] | < 3000 nM | > 10000 nM | < 3000 nM
O=C(NCc1ccc(Cl)c(Cl)c1)C(=O)C1CCCCOCCOCc2ccccc2C(=O)N1 (stereo not drawn) [Compound 83, N-(3,4-dichlorobenzyl)-2-oxo-2-(12-oxo-1,3,4,6,7,8,9,10,11,12-decahydrobenzo[f][1,4]dioxa[9]azacyclotetradecin-10-yl)acetamide] | < 3000 nM | > 10000 nM | 3000 to 10000 nM
CCOC(=O)CCNC(=O)C(=O)[C@@H]1CCCCOCCOCc2ccccc2C(=O)N1 [Compound 55, Ethyl (S)-3-(2-oxo-2-(12-oxo-1,3,4,6,7,8,9,10,11,12-decahydrobenzo[f][1,4]dioxa[9]azacyclotetradecin-10-yl)acetamido)propanoate] | 3000 to 10000 nM | > 10000 nM | 3000 to 10000 nM
CN(C)CCNC(=O)C(=O)C1CCCCOCCOCc2ccccc2C(=O)N1 (stereo not drawn) [Compound 110, N-(2-(dimethylamino)ethyl)-2-oxo-2-(12-oxo-1,3,4,6,7,8,9,10,11,12-decahydrobenzo[f][1,4]dioxa[9]azacyclotetradecin-10-yl)acetamide] | 3000 to 10000 nM | > 10000 nM | > 10000 nM

The next lines start with the values.

IC50 (Human Calpain 9/NS1) | IC50 (Human Calpain 1/NS1) | IC50 (Human Calpain 2/NS1) | Structure (SMILES)
< 3000 nM | > 10000 nM | > 10000 nM | CS(=O)(=O)c1cccc(CNC(=O)C(=O)C2CCCCOCCOCc3ccccc3C(=O)N2)c1 (stereo not drawn) [Compound 118, N-(3-(methylsulfonyl)benzyl)-2-oxo-2-(12-oxo-1,3,4,6,7,8,9,10,11,12-decahydrobenzo[f][1,4]dioxa[9]azacyclotetradecin-10-yl)acetamide]
< 3000 nM | < 3000 nM | < 3000 nM | C/C1=C\C[C@@H](C=O)NC(=O)c2cc(C)nn2-c2cccc(c2)OCC1 [Compound 144, (S,E)-1^3,6-dimethyl-11-oxo-1^1H-3-oxa-10-aza-1(1,5)-pyrazola-2(1,3)-benzenacycloundecaphan-6-ene-9-carbaldehyde]
< 3000 nM | < 3000 nM | < 3000 nM | O=C[C@@H]1CCCCCCOc2ccnc(n2)-c2ccccc2C(=O)N1 [Compound 133, (S)-3-oxo-12-oxa-4-aza-1(2,4)-pyrimidina-2(1,2)-benzenacyclododecaphane-5-carbaldehyde]
> 10000 nM | > 10000 nM | > 10000 nM | COCCOCCOCCNC(=O)C(=O)C1CCCCOCCOCc2ccccc2C(=O)N1 (stereo not drawn) [Compound 122, N-(2-(2-(2-methoxyethoxy)ethoxy)ethyl)-2-oxo-2-(12-oxo-1,3,4,6,7,8,9,10,11,12-decahydrobenzo[f][1,4]dioxa[9]azacyclotetradecin-10-yl)acetamide]
< 3000 nM | < 3000 nM | < 3000 nM | NC(=O)C(=O)[C@@H]1C/C=C/CCOc2ccnc(n2)-c2ccccc2C(=O)N1 [Compound 137, (S,E)-2-oxo-2-(3-oxo-11-oxa-4-aza-1(2,4)-pyrimidina-2(1,2)-benzenacycloundecaphan-7-en-5-yl)acetamide]
> 10000 nM | > 10000 nM | > 10000 nM | C[C@H](NC(=O)C(=O)C1CCCCOCCOCc2ccccc2C(=O)N1)c1cccnc1 (stereo partly drawn) [Compound 126, 2-Oxo-2-(12-oxo-1,3,4,6,7,8,9,10,11,12-decahydrobenzo[f][1,4]dioxa[9]aza-cyclotetradecin-10-yl)-N—((S)-1-(pyridin-3-yl)ethyl)acetamide]

From patent US11292801B2, “Calpain modulators and therapeutic uses thereof” (Blade Therapeutics, Inc., priority 2016, dated 2022)
